Test results from patent US12630547B2, “RAS protein degraders, pharmaceutical compositions thereof, and their therapeutic applications” (BioTheryX, Inc., priority 2019, dated 2026).

Columns and labels:
Assay type in all cases: cell-based
MOLM-13 cells = assay: Cell viability assay (CELLTITER-GLO), MOLM-13 cells; conditions: Homo sapiens, MOLM-13, 72 h; Table 2; compound at 10 μM, 3 days; read-out: Effect on MOLM-13 cell viability (% DMSO)
In short: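 Viability, as % of DMSO control, was read by CellTiter-Glo luminescence after a 3-day compound exposure (single dose of 10 μM or 1 μM) at 37 °C. Cells plated at 4,000/well in RPMI 1640 with 10% FBS. Results reported as categories A <10%, B 10–<25%, C 25–<50%, D ≥50%.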

H358 cells = assay: Cell viability assay (CELLTITER-GLO), H358 cells; conditions: Table 4; 3 days
In short: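 Luminescent ATP read-out (CellTiter-Glo) after 3-day incubation at 37 °C of H358 cells plated at 4,000/well in RPMI 1640 with 10% FBS. Values are either IC50 bins (A ≤1 μM through D >10 μM) or % of DMSO viability at 10 μM or 1 μM, bins A <10% through D ≥50%.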

H23 cells = assay: Cell viability assay (CELLTITER-GLO), H23 cells; conditions: Table 4; 3 days
In short: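 Luminescent CellTiter-Glo readout after 3-day compound treatment (37° C, 5% CO2) of H23 cells plated at 4,000 cells/well in RPMI 1640 plus 10% FBS, DMSO as control. IC50 values given as categorical ranges.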

SMILES	viability at 10 µM (MOLM-13 cells) [%]	Inhibition of H358 cells, IC50 (class) (H358 cells)	Inhibition of H23 cells, IC50 (class) (H23 cells)
C=CC(=O)N1CCN(c2nc(OC[C@@H]3CCCN3C)nc3c(F)c(-c4c(F)cccc4OCCCCCCCN4CCC(c5cc(F)cc6c5CN(C5CCC(=O)NC5=O)C6=O)CC4)c(Cl)cc23)CC1 (stereo partly drawn) [Compound 88, 3-(4-(1-(7-(2-(4-(4-Acryloylpiperazin-1-yl)-6-chloro-8-fluoro-2-(((S)-1-methylpyrrolidin-2-yl)methoxy)quinazolin-7-yl)-3-fluorophenoxy)heptyl)piperidin-4-yl)-6-fluoro-1-oxoisoindolin-2-yl)piperidine-2,6-dione]	< 10	A′	B′
CCC(=O)N1CCN(c2nc(OC[C@@H]3CCCN3C)nc3c(F)c(-c4c(F)cccc4OCCCCCCCN4CCC(c5cc(F)cc6c5CN(C5CCC(=O)NC5=O)C6=O)CC4)c(Cl)cc23)CC1 (stereo partly drawn) [Compound 89, 3-(4-(1-(7-(2-(6-Chloro-8-fluoro-2-(((S)-1-methylpyrrolidin-2-yl)methoxy)-4-(4-propionylpiperazin-1-yl)quinazolin-7-yl)-3-fluorophenoxy)heptyl)piperidin-4-yl)-6-fluoro-1-oxoisoindolin-2-yl)piperidine-2,6-dione]	< 10	B′	B′
C=CC(=O)N1CCN(c2ncnc3c(F)c(-c4cc(OCCCCCCCN5CCC(c6cc(F)cc7c6CN(C6CCC(=O)NC6=O)C7=O)CC5)ccc4F)c(Cl)cc23)CC1 (stereo not drawn) [Compound 90, 3-(4-(1-(7-(3-(4-(4-Acryloylpiperazin-1-yl)-6-chloro-8-fluoroquinazolin-7-yl)-4-fluorophenoxy)heptyl)piperidin-4-yl)-6-fluoro-1-oxoisoindolin-2-yl)piperidine-2,6-dione]	< 10	B′	B′
CCC(=O)N1CCN(c2ncnc3c(F)c(-c4cc(OCCCCCCCN5CCC(c6cc(F)cc7c6CN(C6CCC(=O)NC6=O)C7=O)CC5)ccc4F)c(Cl)cc23)CC1 (stereo not drawn) [Compound 91, 3-(4-(1-(7-(3-(6-Chloro-8-fluoro-4-(4-propionylpiperazin-1-yl)quinazolin-7-yl)-4-fluorophenoxy)heptyl)piperidin-4-yl)-6-fluoro-1-oxoisoindolin-2-yl)piperidine-2,6-dione]	< 10	B′	B′
CCC(=O)N1CCN(c2ncnc3c(F)c(-c4c(F)cccc4OCCc4cn(CCN5CCC(c6cc(F)cc7c6CN(C6CCC(=O)NC6=O)C7=O)CC5)nn4)c(Cl)cc23)CC1 (stereo not drawn) [Compound 92, 3-(4-(1-(2-(4-(2-(2-(6-Chloro-8-fluoro-4-(4-propionylpiperazin-1-yl)quinazolin-7-yl)-3-fluorophenoxy)ethyl)-1H-1,2,3-triazol-1-yl)ethyl)piperidin-4-yl)-6-fluoro-1-oxoisoindolin-2-yl)piperidine-2,6-dione]	≥ 50	C′	D′
CCC(=O)N1CCN(c2ncnc3c(F)c(-c4c(F)cccc4OCCCCCCCN4CCC(c5cc6c(cc5F)C(=O)N(C5CCC(=O)NC5=O)C6)CC4)c(Cl)cc23)CC1 (stereo not drawn) [Compound 93, 3-(5-(1-(7-(2-(6-Chloro-8-fluoro-4-(4-propionylpiperazin-1-yl)quinazolin-7-yl)-3-fluorophenoxy)heptyl)piperidin-4-yl)-6-fluoro-1-oxoisoindolin-2-yl)piperidine-2,6-dione]	< 10	B′	B′
C=CC(=O)N1CCN(c2ncnc3c(F)c(-c4c(F)cccc4OCCCCCCCN4CCC(c5cc6c(cc5F)C(=O)N(C5CCC(=O)NC5=O)C6)CC4)c(Cl)cc23)CC1 (stereo not drawn) [Compound 94, 3-(5-(1-(7-(2-(4-(4-Acryloylpiperazin-1-yl)-6-chloro-8-fluoroquinazolin-7-yl)-3-fluorophenoxy)heptyl)piperidin-4-yl)-6-fluoro-1-oxoisoindolin-2-yl)piperidine-2,6-dione]	< 10	B′	B′
CCC(=O)Oc1cccc(F)c1-c1c(Cl)cc2c3c(cnc2c1F)N(CCCCCCCN1CCC(c2cc(F)cc4c2CN(C2CCC(=O)NC2=O)C4=O)CC1)C(=O)[C@H]1CN(C(=O)CC)[C@H](C)CN31 (stereo partly drawn) [Compound 95, 2-((2R,4aR)-11-Chloro-6-(7-(4-(2-(2,6-dioxopiperidin-3-yl)-6-fluoro-1-oxoisoindolin-4-yl)piperidin-1-yl)heptyl)-9-fluoro-2-methyl-5-oxo-3-propionyl-2,3,4,4a,5,6-hexahydro-1H-pyrazino[1′,2′:4,5]pyrazino[2,3-c]quinolin-10-yl)-3-fluorophenyl propionate]	< 10	B′	B′
C/C=C(\Cl)C(=O)N1CCN(c2ncnc3c(F)c(-c4c(F)cccc4OCCCCCCCN4CCC(c5cc(F)cc6c5CN(C5CCC(=O)NC5=O)C6=O)CC4)c(Cl)cc23)CC1 (stereo not drawn) [Compound 96, (Z)-3-(4-(1-(7-(2-(6-Chloro-4-(4-(2-chlorobut-2-enoyl)piperazin-1-yl)-8-fluoroquinazolin-7-yl)-3-fluorophenoxy)heptyl)piperidin-4-yl)-6-fluoro-1-oxoisoindolin-2-yl)piperidine-2,6-dione]	< 10	B′	B′
CC(C)/C=C(\Cl)C(=O)N1CCN(c2ncnc3c(F)c(-c4c(F)cccc4OCCCCCCCN4CCC(c5cc(F)cc6c5CN(C5CCC(=O)NC5=O)C6=O)CC4)c(Cl)cc23)CC1 (stereo not drawn) [Compound 97, (Z)-3-(4-(1-(7-(2-(6-Chloro-4-(4-(2-chloro-4-methylpent-2-enoyl)piperazin-1-yl)-8-fluoroquinazolin-7-yl)-3-fluorophenoxy)heptyl)piperidin-4-yl)-6-fluoro-1-oxoisoindolin-2-yl)piperidine-2,6-dione]	< 10	B′	B′
CC/C=C(\Cl)C(=O)N1CCN(c2ncnc3c(F)c(-c4c(F)cccc4OCCCCCCCN4CCC(c5cc(F)cc6c5CN(C5CCC(=O)NC5=O)C6=O)CC4)c(Cl)cc23)CC1 (stereo not drawn) [Compound 98, (Z)-3-(4-(1-(7-(2-(6-Chloro-4-(4-(2-chloropent-2-enoyl)piperazin-1-yl)-8-fluoroquinazolin-7-yl)-3-fluorophenoxy)heptyl)piperidin-4-yl)-6-fluoro-1-oxoisoindolin-2-yl)piperidine-2,6-dione]	25 to 50	B′	B′
CC(=O)N1CCN(c2ncnc3c(F)c(-c4c(F)cccc4OCCCCCCCN4CCC(c5cc(F)cc6c5CN(C5CCC(=O)NC5=O)C6=O)CC4)c(Cl)cc23)CC1 (stereo not drawn) [Compound 99, 3-(4-(1-(7-(2-(4-(4-Acetylpiperazin-1-yl)-6-chloro-8-fluoroquinazolin-7-yl)-3-fluorophenoxy)heptyl)piperidin-4-yl)-6-fluoro-1-oxoisoindolin-2-yl)piperidine-2,6-dione]	< 10	B′	B′
C=C(Cl)C(=O)N1CCN(c2nc(=O)n(-c3ccccc3C(C)C)c3nc(-c4c(F)cccc4OCCCCCCCN4CCC(c5cc(F)cc6c5CN(C5CCC(=O)NC5=O)C6=O)CC4)c(F)cc23)[C@@H](C)C1 (stereo partly drawn) [Compound 100, 3-(4-(1-(7-(2-(4-((S)-4-(2-Chloroacryloyl)-2-methylpiperazin-1-yl)-6-fluoro-1-(2-isopropylphenyl)-2-oxo-1,2-dihydropyrido[2,3-d]pyrimidin-7-yl)-3-fluorophenoxy)heptyl)piperidin-4-yl)-6-fluoro-1-oxoisoindolin-2-yl)piperidine-2,6-dione]	< 10	A′	A′
C=C(Cl)C(=O)N1CCN(c2ncnc3c(F)c(-c4c(F)cccc4OCCOCc4ccc(COCCN5CCC(c6cc(F)cc7c6CN(C6CCC(=O)NC6=O)C7=O)CC5)cc4)c(Cl)cc23)CC1 (stereo not drawn) [Compound 101, 3-(4-(1-(2-((4-((2-(2-(6-Chloro-4-(4-(2-chloroacryloyl)piperazin-1-yl)-8-fluoroquinazolin-7-yl)-3-fluorophenoxy)ethoxy)methyl)benzyl)oxy)ethyl)piperidin-4-yl)-6-fluoro-1-oxoisoindolin-2-yl)piperidine-2,6-dione]	< 10	A′	A′
